# Measurements as given in patent publication JP2011032172A, “酸化ストレス低減剤。” (Mitsubishi Gas Chemical Co Inc, priority 2009, dated 2011).
# Experiments:
# [1] = test system: hexanoyl-lysine (ヘキサノイルリジン(HEL)); assay: urinary hexanoyl-lysine (HEL) production rate in the same human trial (ELISA); format: in vivo; conditions: healthy adult men and women 45-65 years; PQQ disodium salt 20 mg hard capsule after breakfast daily, 3 months; urine from same two groups as Example 1; result in words (rate calculated in pmol/kg/hr)
# 8−OHdG = assay: urinary 8-OHdG production rate in placebo-controlled double-blind parallel-group human trial (ELISA); format: in vivo; conditions: healthy adult men and women 45-65 years; PQQ disodium salt 20 mg hard capsule after breakfast daily, 3 months; early-morning urine before and at 4, 8, 12 weeks; result in words (rate calculated in ng/kg/hr)
smiles,measurement,setting,value
"O=C(O)c1cc(C(=O)O)c2c(n1)C(=O)C(=O)c1cc(C(=O)O)[nH]c1-2 [PQQ, ピロロキノリンキノン, 二ナトリウム塩]",HEL production rate,[1],低下傾向
same,8−OHdG production rate,8−OHdG,低下傾向
